Experimental data taken from patent US12458647B2, “Macrocyclic derivative and use thereof” (Guangzhou Joyo Pharmatech Co., Ltd., priority 2022, dated 2025).

What was measured:
PSN-1 cell line = test: In vitro cell proliferation experiment (5 days), PSN-1; assay type: cell-based; conditions: PSN-1, 5 days; read-out: Inhibitory Activity IC50
Description: (§1) RPMI 1640 medium, DMEM, Ham's F12 medium, F12K medium, IMDM and penicillin/streptomycin antibiotics were purchased from Gibco, fetal bovine serum was purchased from Hyclone, Envision multilabel plate reader (PerkinElmer). […]
(§2) The test compound was diluted by 5-fold to 8 concentrations with a pipette, i.e., from 2 mM to 25.6 nM, and replicate wells were set up for the experiment. […] Another cell plate was prepared, and the signal value was read as the maximum value (the maximum value in the following equation) on the day of dosing for data analysis.
(§3) 50 μL of cell viability chemiluminescent detection reagent was added to the cell plate and incubated at room temperature for 30 minutes to stabilize the luminescence signal. A multilabel plate reader was used for reading. […]

[1] = Pharmacokinetic study in Beagle dogs; assay type: in vivo; conditions: male Beagle dogs; for AUC0-last / Cl / T1/2 / Vd / Cmax / TMax: whole blood
Description: To evaluate the pharmacokinetic behavior of the compounds of the present disclosure in male Beagle dogs.
The compounds to be tested were dissolved in the vehicle (5% DMSO/10% solutol/85% water). Four male beagle dogs were divided into 2 groups of 2. Group 1 animals were administered a single intravenous bolus injection (i.v.) of the compounds at a dose of 1 mg/kg. Group 2 animals were administered a single dose of the compounds by gavage (p.o.) at a dose of 5 mg/kg. Whole blood samples were collected at 0.083 (intravenous bolus group only), 0.25, 0.5, 1, 2, 4, 8 and 24 hours after dosing. The LC-MS/MS method was used to determine the concentration of the test compound in whole blood samples.

AsPC-1 cells = test: In vitro cell proliferation experiment (5 days), AsPC-1; assay type: cell-based; conditions: AsPC-1, 5 days; read-out: Inhibitory Activity IC50
Description: as §1, §2, §3

[2] = In vitro determination of whole blood to plasma concentration ratios, mouse; assay type: in vitro ADME; conditions: CD-1 mouse whole blood, 1 μM, 37° C., 60 minutes
Description: (§4) (1) Fresh mouse and human whole blood (n≥3 for number of individual animals and n≥2 for number of individual humans) were collected in blood collection tubes containing EDTAK2 anticoagulant. Whole blood samples had to be mixed well and stored at 2-8° C. or on wet ice before use. They were used within 36 hours of whole blood collection. Blank whole blood was centrifuged at 2,000×g for 15 minutes at room temperature to obtain blank plasma. The plasma status was checked and hemolyzed plasma samples could not be used.
(§5) (2) The hematocrit (the percentage content of red blood cells in whole blood) was determined by centrifugation of whole blood samples in microhematocrit centrifuge tubes.
(§6) (3) Diclofenac (all species), chlorthalidone (mouse) or chloroquine (human) were used as control compounds.
(§7) (4) ACN solution containing 2% DMSO with a final concentration of 1 μM of the test compound was added to blank whole blood samples, and three parallel treatments were performed. The final content of the organic phase in the system should not exceed 0.5% (the content of DMSO should not exceed 0.1%). A certain volume of the drug-containing whole blood sample was pipetted to the sample receiving plate (three replicates), an equal volume of blank plasma was added, and mixed well to obtain the T0 sample.
(§8) (5) The whole blood sample containing the test compound was incubated at 37° C. with shaking for 60 minutes.
(§9) (6) After the end of incubation, a certain volume of whole blood samples containing the drug was pipetted to the sample receiving plate (three replicates) as T60-whole blood samples.
(§10) (7) The remaining whole blood samples were centrifuged at 2,000×g for 15 minutes in a 37° C. centrifuge to obtain plasma samples. A certain volume of plasma was pipetted to the sample receiving plate (three replicates) as T60-plasma samples.
(§11) (8) During sample treatment, all samples were equilibrated with the matrix (i.e., blank whole blood or blank plasma of the same volume was added) and mixed well.
(§12) (9) 1-fold volume of pure water was added to the equilibrated sample, and then a certain volume of stop solution containing internal standard compound was added to terminate the reaction.
(§13) (10) The analytes and control compounds in the samples were determined by liquid chromatography-tandem mass spectrometry (LC-MS/MS) method. The ratio of analyte peak area to internal standard peak area was used to represent the concentration in the sample.
(§14) See Table 7 for the experimental results. Wherein KB/P represents the concentration ratio of the compound in whole blood and plasma. KE/P represents the concentration ratio of the compound in red blood cells and plasma, and recovery (%) represents the recovery of the compound in whole blood.

RKN cell line = test: In vitro cell proliferation experiment (5 days), RKN; assay type: cell-based; conditions: read-out: Inhibitory Activity IC50
Description: as §1, §2, §3

[3] = In vitro determination of whole blood to plasma concentration ratios, human; assay type: in vitro ADME; conditions: 1 μM, 37° C., 60 minutes
Description: as §4, §5, §6, §7, §8, §9, §10, §11, §12, §13, §14

AUC0-last ([1]; i.v. 1 mg/kg) [µM·h]	Cl ([1]; i.v. 1 mg/kg) [mL/min/kg]	T1/2 ([1]; i.v. 1 mg/kg) [h]	Vd ([1]; i.v. 1 mg/kg) [L/kg]	F(%) ([1]; p.o. 5 mg/kg)	AUC0-last ([1]; p.o. 5 mg/kg) [µM·h]	Cmax ([1]; p.o. 5 mg/kg) [nM]	T1/2 ([1]; p.o. 5 mg/kg) [h]	TMax ([1]; p.o. 5 mg/kg) [h]	IC50 (AsPC-1 cells) [nM]	KB/P (concentration ratio of the compound in whole blood and plasma) [2]	KE/P (concentration ratio of the compound in red blood cells and plasma) [2]	Recovery (%) of the compound in whole blood [2] [%]	KB/P (concentration ratio of the compound in whole blood and plasma) [3]	KE/P (concentration ratio of the compound in red blood cells and plasma) [3]	Recovery (%) of the compound in whole blood [3] [%]	Structure (SMILES)	IC50 (PSN-1 cell line) [nM]	IC50 (RKN cell line) [nM]
7.91	1.9	24.5	3.8	22	8.72	472	22.4	1.5	2.1	5.3	9.4	101.5	3.5	6.5	96.4	CCn1c(-c2cc(N3CCN(C)CC3)cnc2C(C)OC)c2c3cc(ccc31)-c1csc(n1)CC(NC(=O)C1C(C)C1C)C(=O)N1NC(C(=O)OCC(C)(C)C2)C2CC1C2 (single isomer, unassigned) [Compound 6A]	5.3	4.5
4.712	4.2	10.3	3.0	33.2	7.632	618	12.0	1.0	6.6	5.1	8.1	97.3	2.6	5.2	102.6	CCn1c(-c2cc(N3CCN(C)CC3)cnc2C(C)OC)c2c3cc(ccc31)-c1csc(n1)CC(NC(=O)C1CC1C)C(=O)N1NC(C(=O)OCC(C)(C)C2)C2CC1C2 (single isomer, unassigned) [Compound 7A]	10.5	7.5
